Data on 11 compounds can be found in patent publication US4789683A, “Benzamido-derivatives” (priority 1981, dated 1988).

The ED50 is the dose that gives a 50% effect, or the effect in half of the subjects.

Read-outs that look alike come from different tables or passages of the source.

Data set [1] concerns DA receptors in the brain. Nature of the data set: Block of apomorphine-induced hyperactivity in the rat. It counts as in vivo, Male Sprague-Dawley rats. The conditions noted are these: for potency to block apomorphine, ED50 Hyperactivity: p.o., rat; for Block of apomorphine ED50, hyperactivity: i.p., 60 min prior to apomorphine HCl 1 mg/kg s.c. From the text: There are presently several techniques available to study DA receptor blockage in the brain in vico. One method is based on the ability of antipsychotic drugs to block the behavioural effects induced by the DA agonist apomorphine in the rat. […] The stereotypies (chewing, […], biting) appear mainly to be induced via activation of DA receptors linked to the neostriatal DA system (J. Psychiat. […] Directly after injection, the animals were placed in the cages, one in each cage. Scoring of the stereotypies were performed by two separate methods. […] The strength of the stereotype was scored on a 0-3 scale as follows: In the second system the number of animals displaying hyperactivity caused by apomorphine were scored. Each group consisted of 6-8 animals. Saline controls were always run simultaneously.

The target in data set [2] is T1, DA receptors in the brain (Rattus norvegicus, UniProt P61169).
T1 construct: from tissue; host or cells: brain of live male Sprague-Dawley rats (in vivo behavioural test)
Put plainly: Block of apomorphine-induced stereotypies in the rat (0-3 scale). In kind it is in vivo, Male Sprague-Dawley rats. As to the method:
There are presently several techniques available to study DA receptor blockage in the brain in vico. One method is based on the ability of antipsychotic drugs to block the behavioural effects induced by the DA agonist apomorphine in the rat.
Directly after injection, the animals were placed in the cages, one in each cage. Scoring of the stereotypies were performed by two separate methods. […] The strength of the stereotype was scored on a 0-3 scale as follows:
3 Continous sniffing. Chewing, biting and licking.
In the second system the number of animals displaying hyperactivity caused by apomorphine were scored. Each group consisted of 6-8 animals. Saline controls were always run simultaneously. […] The ED50 were calculated from log dose-response curves by the method of least squares from 4-6 dose levels with 6-8 animals per dose level.

The conditions of data set [3]: in vivo; cited from earlier work.
The conditions of data set [4]: experimental animals; cited from earlier work.
The mark [5] stands for this setting: po, rat, read-out: potency to block apomorphine, ED50 Stereotypies.
[6] abbreviates: rat, ip, 60 min prior to apomorphine HCl 1 mg/kg s.c., read-out: Block of apomorphine ED50, stereotypes.

T1 sequence (P61169 whole entry): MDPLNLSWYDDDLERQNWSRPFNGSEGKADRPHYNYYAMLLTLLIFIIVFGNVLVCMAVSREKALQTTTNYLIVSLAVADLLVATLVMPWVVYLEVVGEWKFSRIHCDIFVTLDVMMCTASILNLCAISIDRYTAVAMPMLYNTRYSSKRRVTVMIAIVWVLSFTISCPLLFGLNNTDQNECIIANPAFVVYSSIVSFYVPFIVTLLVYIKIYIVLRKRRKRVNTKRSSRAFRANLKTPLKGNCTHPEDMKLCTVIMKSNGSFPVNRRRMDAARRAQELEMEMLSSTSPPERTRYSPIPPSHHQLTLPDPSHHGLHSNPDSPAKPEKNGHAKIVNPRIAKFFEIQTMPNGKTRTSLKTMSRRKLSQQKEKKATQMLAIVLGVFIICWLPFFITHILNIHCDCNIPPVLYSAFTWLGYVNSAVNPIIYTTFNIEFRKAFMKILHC

`CCOc1ccc(Br)c(O)c1C(=O)NCC1CCCN1CC` (single isomer, unassigned) [901(-)]: in data set [1], the “potency to block apomorphine, ED50 Hyperactivity” value (“potency to block apomorphine” below) was determined as 3.0 µmol/kg. Further, in data set [2] (setting [5]), the ED50 stood at 34 µmol/kg.

As to `CCN1CCCC1CNC(=O)c1c(O)c(Br)cc(Br)c1OC` (single isomer, unassigned) [FLA 659 (-)], in data set [1], the “Block of apomorphine ED50, hyperactivity” value is 0.40 µmol/kg. The “potency to block apomorphine” value in data set [1] was found to be 3.2 µmol/kg. The ED50 in data set [2] (setting [5]) came out at 12 µmol/kg; in data set [2] (setting [6]), 2.3 µmol/kg.

With `CCN1CCCC1CNC(=O)c1c(OC)ccc(Br)c1O` (single isomer, unassigned) [FLA 797 (-)], in data set [1], the “Block of apomorphine ED50, hyperactivity” value was determined as 0.035 µmol/kg and the “potency to block apomorphine” value stood at 3 µmol/kg. Moreover, in data set [2] (setting [5]), the 50% effective dose (ED50) worked out at 22 µmol/kg. In data set [2] (setting [6]), the ED50 amounted to 0.38 µmol/kg.

As for `CCN1CCCC1CNC(=O)c1c(OC)ccc(Cl)c1O` (single isomer, unassigned) [FLA 814 (-)], in data set [1], the “Block of apomorphine ED50, hyperactivity” value was determined as 0.14 µmol/kg. In addition, the “potency to block apomorphine” value in data set [1] stood at 4.4 µmol/kg. Further, the ED50 was found to be 25 µmol/kg in data set [2] (setting [5]) and 1.1 µmol/kg in data set [2] (setting [6]).

Turning to `CCN1CCCC1CNC(=O)c1c(O)c(Cl)cc(Cl)c1OC` (single isomer, unassigned) [FLA 870 (-)], the “Block of apomorphine ED50, hyperactivity” value in data set [1] amounted to 0.11 µmol/kg. In addition, the “Block of apomorphine ED50, stereotypes” value in data set [2] (i.p., 60 min prior to apomorphine HCl 1 mg/kg s.c.) was found to be 2.4 µmol/kg.

On to `CCCN1CCCC1CNC(=O)c1c(OC)ccc(Br)c1O` (single isomer, unassigned) [FLA 889 (-)], for which, in data set [1], the “Block of apomorphine ED50, hyperactivity” value turned out to be 0.27 µmol/kg. The ED50 in data set [2] (setting [6]) came out at 0.75 µmol/kg.

Take `CCN1CCCC1CNC(=O)c1c(OC)ccc(Br)c1O` (stereo not drawn) [FLA 797]: the “Block of apomorphine ED50, hyperactivity” value in data set [1] stood at 0.22 µmol/kg. Moreover, the ED50 in data set [2] (setting [6]) turned out to be 1.1 µmol/kg.

On to `CCOc1ccc(Br)c(O)c1C(=O)NCC1CCCN1CC` (stereo not drawn) [FLA 901], for which, in data set [1], the “Block of apomorphine ED50, hyperactivity” value amounted to 1.1 µmol/kg. Besides, in data set [2] (setting [6]), the ED50 stood at 3.4 µmol/kg.

`CCN1CCCC1CNC(=O)c1c(OC)ccc(Br)c1OC(C)=O` (stereo not drawn) [FLA 903]: the 50% effective dose (ED50) in data set [2] (setting [6]) amounted to 0.53 µmol/kg.

Consider `CCN1CCCC1CNC(=O)c1c(O)ccc(Br)c1OC` (stereo not drawn) [FLA 908], for which the “Block of apomorphine ED50, hyperactivity” value in data set [1] was determined as 1.1 µmol/kg. In data set [2] (setting [6]), the ED50 was found to be 10 µmol/kg.

On to `CCN1CCCC1CNC(=O)c1cc(S(N)(=O)=O)ccc1OC` (stereo not drawn) [Sulpiride, reference compound], for which the “Block of apomorphine ED50, hyperactivity” value in data set [1] was determined as 50 µmol/kg. Besides, the extrapyramidal side effects entry in data set [3] is listed as “weak extrapy ramidal side effects”. Further, in data set [4], the catalepsy result is recorded as “weak catalepsy”. In addition, in data set [2] (p.o., rat, apomorphine stereotypies and hyperactivity, in words), the “activity after oral administration” value is given as “lost all activity”. For the same compound, in data set [2] (rat, ip, read-out: Block of apomorphine ED50, stereotypes), the ED50 is 203 µmol/kg.
